The values below are quoted from earlier work in patent US20140171436A1, “TREATMENT OF ANTIFOLATE NEUROTOXICITY” (Syntrix Biosystems, Inc., priority 2003, published 2014).

Values joined by “and” are separate entries in the source; they are usually repeats but may differ in a detail not shown here. Equal entries are not always repeated. Where two headings read alike, the source gives them in different places.

The conditions of series [1]: in words; 'No' = none known; cited from earlier work.
The target of series [2] is sigma-1 receptor (Homo sapiens, UniProt Q99720). As to conditions: cited from earlier work.
Series [3] addresses NMDA receptor. As to conditions: read-out: Ki NMDAR; cited from earlier work.
Series [4] addresses sigma-2 (Homo sapiens, UniProt Q5BJF2). The settings on record: read-out: Ki sigma-2; cited from earlier work.
The target of series [5] is sigma-1 (Cavia porcellus, UniProt Q60492). The settings on record: Table IV, reference 8; read-out: sigma-1 affinity IC50; cited from earlier work.
The conditions of series [6]: cited from earlier work.
The conditions of series [7]: frequent and massive doses as large as 3300 mg/day; cited from earlier work.
The mark [8] stands for this setting: Table III, sigma-1 antagonists, read-out: sigma-1 affinity.
Setting [9] is: Table IV, undefined agonist/antagonist activity, read-out: sigma-1 affinity.
Setting [10] is: Table II, sigma-1 agonists, read-out: sigma-1 affinity.
[11] abbreviates: delayed syndrome, moderate dose.

Sequence of sigma-2 (Q5BJF2 whole entry): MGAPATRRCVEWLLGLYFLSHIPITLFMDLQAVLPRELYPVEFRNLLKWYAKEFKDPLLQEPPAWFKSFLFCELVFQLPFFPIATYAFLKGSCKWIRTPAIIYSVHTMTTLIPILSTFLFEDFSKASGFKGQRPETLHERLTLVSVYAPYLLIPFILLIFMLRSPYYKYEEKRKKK
Sequence of sigma-1 (Q60492 whole entry): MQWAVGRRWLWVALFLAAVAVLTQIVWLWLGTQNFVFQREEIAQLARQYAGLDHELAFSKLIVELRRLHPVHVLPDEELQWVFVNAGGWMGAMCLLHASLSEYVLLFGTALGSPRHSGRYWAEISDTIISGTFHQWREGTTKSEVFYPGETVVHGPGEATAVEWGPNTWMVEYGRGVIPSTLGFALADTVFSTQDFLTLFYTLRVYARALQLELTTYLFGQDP
Sequence of sigma-1 receptor (Q99720 whole entry, species assumed): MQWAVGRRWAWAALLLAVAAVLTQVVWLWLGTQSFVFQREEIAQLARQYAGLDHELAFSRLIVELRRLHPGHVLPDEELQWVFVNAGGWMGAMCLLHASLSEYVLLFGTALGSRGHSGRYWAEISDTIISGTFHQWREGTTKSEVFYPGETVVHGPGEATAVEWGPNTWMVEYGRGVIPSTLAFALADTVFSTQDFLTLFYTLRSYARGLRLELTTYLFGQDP

As to “1-(cyclopropylmethyl)-4-(2′-oxoethyl) piperidine HBr [Dup-734]”, the Other known affinity result in series [1] is given as “No”. Also, the Ki in series [2] (setting [8]) is less than 50 nM.
As for “2-[4-(4-methoxy-benzyl)piperazin-1-yl-methyl]4-oxo[4H]-benzo-thiazolin-2-one [S-21377]”, in series [1], the Other known affinity result is on record as “No”. Also, the Ki in series [2] (setting [9]) is less than 50 nM.
In the case of `C=CCN1CCC2(C)c3cc(O)ccc3CC1C2C` (single isomer, unassigned; (+)) [(+)-N-allyl-normetazocine], the Ki was 600 nM in series [3], 14000 nM in series [4], less than 50 nM in series [2] (setting [10]) and 58 nM in series [2] (read-out: sigma-1 affinity Ki).
Consider `CC(C)=CCN1CCC2(C)c3cc(O)ccc3CC1C2C` (single isomer, unassigned; (+)) [(+)-pentazocine], for which, in series [1], the Other known affinity entry was “No”.
Regarding `CCC(C/C=C/c1ccccc1)(c1ccccc1)N(C)CC1CC1` (single isomer, unassigned; (+)) [Igmesine, (+) N-cyclopropylmethyl-N-methyl-1,4-diphenyl-1-ethyl-butyl-2-N], the Ki in series [2] (setting [10]) is less than 50 nM.
With `CCCN1CCC[C@H](c2cccc(O)c2)C1` [(+)-3-PPP, R(+)-3-(3-hydroxyphenyl)-N-propylpiperidine], in series [1], the Other known affinity entry is on record as “Dopamine receptor”.
For the compound `C[C@H](Cc1ccccc1)NCCCc1ccccc1` [(−)-PPAP, R(−)-N-(3-phenyl-1-propyl)-1-phenyl-2-aminopropane], the Other known affinity result in series [1] was “NMDAR”.
In the case of `CN(CCc1ccc(Cl)c(Cl)c1)CCN1CCCC1` [BD-1008, N-[2-(3,4-dicholophenyl)ethyl]-N-methyl-2-(1-pyrrolidinyl)ethylamine], the Other known affinity result in series [1] was “sigma-2”.
Consider `C=CCOc1ccc2c(c1)[C@@]13CCCC[C@H]1[C@@H](C2)N(C)CC3` [CPK-5, 3-allyloxy-17-methylmorphinan], for which the values for the Ki in series [3], in series [4] and in series [2] (read-out: sigma-1 affinity Ki) were 18000 nM, 14000 nM and 156 nM, respectively.
Consider `CN1CC[C@]23CCCC[C@H]2[C@H]1Cc1ccc(OCC2CC2)cc13` [CPK-6, 3-cyclopropylmethoxy-17-methylmorphinan], for which the Ki in series [3] is 18000 nM; in series [4], 15000 nM; in series [2] (read-out: sigma-1 affinity Ki), 148 nM.
`CCN(CC)CCOC(=O)C1(c2ccccc2)CCCC1` [Caramiphen]: in series [5], the IC50 – broadly, the point on the concentration scale where inhibition reaches its midpoint – is 25 nM.
For `CCN(CC)CCOCCOC(=O)C1(c2ccccc2)CCCC1` [Carbetapentane], in series [5], the IC50 is 9 nM. In addition, the Ki in series [2] (setting [9]) is less than 50 nM.
Regarding `COC(=O)[C@H]1[C@@H](OC(=O)c2ccccc2)C[C@@H]2CC[C@H]1N2C` [Cocaine], the Ki in series [2] (setting [10]) was 500 to 10000 nM.
Take `Cc1ccc2c(c1)[C@@]13CCCC[C@H]1[C@@H](C2)N(C)CC3` [Dimemorfan, (+)-3-methyl-N-methylmorphinan]: the Ki is 17000 nM in series [3], 4000 to 11000 nM in series [4] and 151 nM in series [2] (read-out: sigma-1 affinity Ki).
On to `CN(C)CCOCCOC(=O)N1c2ccccc2Sc2ccccc21` [Dimethoxanate], for which, in series [5], the IC50 was 41 nM. Also, the Ki in series [2] (setting [9]) was less than 50 nM.
For `OC(CN1CCC(Cc2ccc(F)cc2)CC1)c1ccc(Cl)cc1` (centres unmarked) [Eliprodil], the Other known affinity result in series [1] is recorded as “NMDAR polyamine site”. In addition, in series [2] (setting [9]), the Ki was less than 50 nM.
For the compound `CNCCC(Oc1ccc(C(F)(F)F)cc1)c1ccccc1` (centres unmarked) [Fluoxetine], the Other known affinity result in series [1] is “SSRI”.
On to `CN(C)CCCN1c2ccccc2CCc2ccccc21` [Imipramine], for which, in series [1], the Other known affinity result is given as “MAOI”. Besides, the Ki in series [2] (setting [10]) is 50 to 500 nM.
Consider `COCCN1CCN(C[C@H]2CCN(c3ccc(Cl)cc3)C2=O)CC1.O=C(O)C(O)C(O)C(=O)O` [MS-377, (R)-(+)-1-(4-chlorophenyl)-3-[4-(2-methoxyethyl)piperazin-1-yl] methyl-2-pyrrolidinone L-tartrate], for which, in series [1], the Other known affinity entry is “No”. Moreover, the Ki in series [2] (setting [8]) is less than 50 nM.
On to `CN(Cc1cnc2nc(N)nc(N)c2n1)c1ccc(C(=O)N[C@@H](CCC(=O)O)C(=O)O)cc1` [MTX, Methotrexate], for which, in series [6] (acute syndrome, >1 g/m^2, IT), the Incidence is reported as 5-40%. Moreover, in series [6] (delayed (chronic) syndrome, low dose <10 mg/m^2 oral), the Incidence entry is reported as “Low - 56%”. Further, the Incidence result in series [6] (delayed syndrome, high dose 7-20 g/m^2 every 1-2 weeks) was “High - 2.3%”. The “Typical duration of symptoms, insidiously progressive” value in series [6] (delayed syndrome, high dose) is on record as “High - Insidiously progressive over 3-6 months”. Moreover, the Incidence entry in series [6] (delayed syndrome, moderate dose 10-1000 mg/m^2, depending on net dose) is given as “Moderate - 1.9-19.5% depending on net dose”. In series [6] (delayed syndrome, moderate dose, depending on dose), the “Radiographic findings: leukoencephalopathy” value was “Moderate - Leukoencephalopathy in 15-75%,”. In addition, in series [6] (setting [11]), the “Permanent sequelae: asymptomatic” value is recorded as “asymptomatic in 63-74%”, the “Permanent sequelae: neuropsychologic impairment” value is recorded as “neuropsychologic impairment 15%,” and the “Permanent sequelae: recurrent seizures” value is given as “Moderate - Recurrent seizures 7-26%,”. Moreover, in series [6] (subacute syndrome), the “Typical duration of symptoms, mean” value is on record as “Mean 38 hours” and the “mean duration of symptoms” value is listed as “approximately 40 hours”.
`Cc1c(-c2ccccc2)oc2ccc(OCCCCCCN3CCC(O)CC3)cc2c1=O` [NPC 16377, 6-[6-(4-hydroxypiperidinyl)hexyloxy]-3-methylflavone]: the Other known affinity result in series [1] was “No”.
Consider `COc1cccc2c1CCC(=O)N2CCCN1CCN(c2cccc(Cl)c2)CC1` [OPC-14523], for which the Other known affinity result in series [1] is “Sigma-2, 5HT1AR”. The Ki in series [2] (setting [10]) was less than 50 nM.
For the compound `C[C@]12CC[C@H](OS(=O)(=O)O)CC1=CC[C@@H]1[C@@H]2CC[C@]2(C)C(=O)CC[C@@H]12` [PB-008, dihydroepiandrosterone sulphate], the Ki in series [2] (setting [10]) is 500 to 10000 nM.
Turning to `COc1ccc(N2C[C@H](CN3CCC(O)(c4ccc5c(c4)OCO5)CC3)OC2=O)cc1` [Panamesin], in series [2] (setting [8]), the Ki is less than 50 nM.
As for `O=C(OCCOCCN1CCCCC1)N1c2ccccc2Sc2cccnc21` [Pipazethate], in series [5], the IC50 is 190 nM. The Ki in series [2] (setting [9]) was less than 50 nM.
Regarding `CC(=O)C1CCC2C3CC=C4CC(OS(=O)(=O)O)CCC4(C)C3CCC12C` (centres unmarked) [Pregnenolone sulphate], in series [2] (setting [10]), the Ki is 500 to 10000 nM.
In the case of `c1ccc(CN2CCN(Cc3ccc4ccccc4c3)CC2)cc1` [S-21378, 2[(4-benzylpiperazin-1-yl)mothyl] naphthalene, dichiorydrate], the Other known affinity result in series [1] is listed as “No”. Also, the Ki in series [2] (setting [9]) is less than 50 nM.
In the case of `COc1ccc(CCN2CCN(CCCc3ccccc3)CC2)cc1OC.Cl` [SA4503, 1-(3,4-dimethoxyphenethyl)-4-(3-phenylpropyl) piperazine HCl], the Other known affinity result in series [1] is “No”.
Regarding `CCN(C/C=C\c1ccc(C2CCCCC2)c(Cl)c1)C1CCCCC1.Cl` [SR-31747A], the Other known affinity entry in series [1] is “C8-C7 sterol isomerase”. The Ki in series [2] (setting [9]) is less than 50 nM.
For `CN1CC[C@@]23CCCC[C@@H]2[C@@H]1Cc1ccc(O)cc13` [dextrorphan], the Ki is 4000 to 11000 nM in series [4]; 144 nM and 140 nM in series [2] (read-out: sigma-1 affinity Ki). In series [7], the side-effects entry is given as “unacceptable PCP-like side-effects”.
